Like-named read-outs stand apart in the source and are kept apart here.
Experiments:
[1] = target: CDK1/cyclin B; assay: CDK1/cyclin B kinase assay (histone H1, 15 μM ATP); type: biochemical, starfish (Marthasterias glacialis); conditions: 15 μM ATP, Table 1
Procedure: (§1) Blank values were subtracted and activities calculated as pmoles of phosphate incorporated for a 10 min. incubation. […] Controls were performed with appropriate dilutions of dimethylsulfoxide. In a few cases phosphorylation of the substrate was assessed by autoradiography after SDS-PAGE.
CDK1/cyclin B was extracted in homogenisation buffer from M phase starfish (Marthasterias glacialis) oocytes and purified by affinity chromatography on p9^CKShs1-sepharose beads, from which it was eluted by free p9^CKShs1. […] ATP (3,000 Ci/mmol; 1 mCi/ml) in a final volume of 30 μl. After 10 min. incubation at 30° C., 25 μl aliquots of supernatant were spotted onto P81 phosphocellulose papers and treated as described above.
(§2) Kinases were assayed as above described in the presence of increasing concentrations of aloisines.

[2] = target: GSK-3α/β; assay: GSK-3 kinase assay (GS-1 peptide, 15 μM ATP); type: biochemical, porcine; conditions: read-out: IC50 GSK-3
Procedure: as §1
GSK-3α/β was either purified from porcine brain or expressed in and purified from insect Sf9 cells. […] ATP (3,000 Ci/mmol; 1 mCi/ml) in a final volume of 30 μl. After 30 min. incubation at 30° C., 25 μl aliquots of supernatant were spotted onto 2.5×3 cm pieces of Whatman P81 phosphocellulose paper, and, 20 sec. later, the filters were washed five times (for at least 5 min. each time) in a solution of 10 ml phosphoric acid/liter of water. The wet filters were counted in the presence of 1 ml ACS (Amersham) scintillation fluid.
as §2

c1ccc2c(-c3cc4nccnc4[nH]3)cccc2c1 [6 (RP17), 6-(1-Naphtyl) [5H]pyrrolo[2,3-b]pyrazine]
IC50 [1]: > 100 µM | IC50 ([2]; 15 μM ATP, Table 1): 27 µM | melting point: 216.4 °C

Cc1cnc2cc(-c3ccccc3)[nH]c2n1 [8 (RP18), 3-Methyl-6-phenyl[5H]pyrrolo[2,3-b]pyrazine]
IC50 [1]: 69 µM | IC50 ([2]; 15 μM ATP, Table 1): > 100 µM | melting point: 261.8 °C

Clc1ccc(C2(c3cc4nccnc4[nH]3)CC2)cc1 [9 (RP124), 6-[1-(4-Chlorophenyl)-1-cyclopropyl][5H]pyrrolo[2,3-b]pyrazine]
IC50 [1]: 30 µM | IC50 ([2]; 15 μM ATP, Table 1): 1 µM | melting point: 189.7 °C

COc1ccccc1-c1cc2nccnc2[nH]1 [10 (RP9), 6-(2-Methoxyphenyl)[5H]pyrrolo[2,3-b]pyrazine]
IC50 [1]: 20 µM | IC50 ([2]; 15 μM ATP, Table 1): 3.3 µM | melting point: 156.9 °C

COc1cccc(-c2cc3nccnc3[nH]2)c1 [12 (RP10), 6-(3-Methoxyphenyl)[5H]pyrrolo[2,3-b]pyrazine]
IC50 [1]: 13 µM | IC50 ([2]; 15 μM ATP, Table 1): 3.2 µM | melting point: 195.7 °C

Br.Oc1cccc(-c2cc3nccnc3[nH]2)c1 [13 (RP134), 6-(3-Hydroxyphenyl)[5H]pyrrolo[2,3-b]pyrazine hydrobromide]
IC50 [1]: 2.5 µM | melting point: 258 °C (dec.)

Br.Oc1ccc(-c2cc3nccnc3[nH]2)cc1 [15 (RP26), 6-(4-Hydroxyphenyl) [5H]pyrrolo[2,3-b]pyrazine hydrobromide]
IC50 [1]: 1.2 µM | IC50 [2]: 1.2 µM | melting point: 255 °C (dec.)

Fc1ccc(-c2cc3nccnc3[nH]2)cc1 [18 (RP76), 6-(4-Fluorophenyl)[5H]pyrrolo[2,3-b]pyrazine]
IC50 [1]: 2.3 µM | IC50 ([2]; 15 μM ATP, Table 1): 1.9 µM | melting point: 244 °C (dec.)

Clc1ccc(-c2cc3nccnc3[nH]2)cc1 [19 (RP14), 6-(4-Chlorophenyl)[5H]pyrrolo[2,3-b]pyrazine]
IC50 [1]: 1.8 µM | melting point: 250 °C (dec.)

N#Cc1ccc(-c2cc3nccnc3[nH]2)cc1 [23 (RP20), 6-(4-Cyanophenyl) [5H]pyrrolo[2,3-b]pyrazine]
IC50 [1]: 3 µM | IC50 ([2]; 15 μM ATP, Table 1): 4.8 µM | melting point: 340 °C (dec.)

Cc1ccc(-c2cc3nccnc3[nH]2)cc1 [24 (RP78), 6-(4-Methylphenyl)[5H]pyrrolo[2,3-b]pyrazine]
IC50 [1]: 3 µM | IC50 ([2]; 15 μM ATP, Table 1): 2.6 µM | melting point: 265.4 °C

COc1ccc(-c2[nH]c3nccnc3c2C)cc1 [27 (RP95), 6-(4-Methoxyphenyl)-7-methyl[5H]pyrrolo[2,3-b]pyrazine]
IC50 [1]: 0.3 µM | IC50 ([2]; 15 μM ATP, Table 1): 0.46 µM | melting point: 221.6 °C

Br.Cc1c(-c2ccc(O)cc2)[nH]c2nccnc12 [28 (RP96), 6-(4-Hydroxyphenyl)-7-methyl[5H]pyrrolo[2,3-b]pyrazine hydrobromide]
IC50 [1]: 0.25 µM | IC50 ([2]; 15 μM ATP, Table 1): 0.52 µM | melting point: 262 °C (dec.)

COc1ccc(-c2[nH]c3nccnc3c2C)cc1OC [29 (RP123), 6-(3,4-Methoxyphenyl)-7-methyl[5H]pyrrolo[2,3-b]pyrazine]
IC50 [1]: 1.1 µM | IC50 ([2]; 15 μM ATP, Table 1): 2 µM | melting point: 230.2 °C

Cc1c(-c2ccc(Cl)cc2)[nH]c2nccnc12 [30 (RP80), 6-(4-Chlorophenyl)-7-methyl[5H]pyrrolo[2,3-b]pyrazine]
IC50 ([2]; 15 μM ATP, Table 1): 1.7 µM | melting point: 260 °C (dec.)

COc1ccc(-c2[nH]c3nccnc3c2CCCCl)cc1 [35 (RP126), 7-(3-Chloropropyl)-6-(4-methoxyphenyl)[5H]pyrrolo[2,3-b]pyrazine]
IC50 ([2]; 15 μM ATP, Table 1): 2.5 µM | melting point: 178 °C (dec.)

COc1ccc(-c2[nH]c3nccnc3c2C(C)C)cc1 [36 (RP102), 7-Isopropyl-6-(4-methoxyphenyl)[5H]pyrrolo[2,3-b]pyrazine]
IC50 ([2]; 15 μM ATP, Table 1): 0.5 µM | melting point: 204.8 °C

CCCCc1c(-c2ccc(OC)cc2)[nH]c2nccnc12 [38 (RP106), 7-n-Butyl-6-(4-methoxyphenyl)[5H]pyrrolo[2,3-b]pyrazine]
IC50 ([2]; 15 μM ATP, Table 1): 0.92 µM

Cc1c(C2(c3ccc(Cl)cc3)CC2)[nH]c2nccnc12 [49 (RP130)]
IC50 ([2]; 15 μM ATP, Table 1): 18 µM

— patent US8106050B2, “Derivatives of pyrrolo-pyrazines having a kinase inhibitory activity and their biological applications” (Centre National de la Recherche Scientifique (C.N.R.S.), priority 2002, dated 2012)
